Results on five molecules are retold here after US7696251B2, “Method for inhibiting neuronal cell death induced by oxidative glutamate toxicity” (Incorporated National University Iwate University, priority 2007, dated 2010).

Like-named read-outs stand apart in the source and are kept apart here.

In test [1] the test system is HT22 cells. Nature of the test: Oxidative glutamate toxicity in HT22 cells, MTT assay. In kind it is cell-based, mouse. The note with it: for IC50: Mus musculus, read-out: concentration of half inhibition (IC50) of oxidative glutamate toxicity. The method, then:
(§1) DPPD and its derivatives, shown in FIG. 1, were obtained from Ouchi Shinko Chemical Industrial (Tokyo, Japan). The compounds were dissolved in dimethyl sulfoxide (DMSO). The final concentration of DMSO in the culture medium was 0.1%. TNFα, actinomycin D (AcD), XA, XO, glutamate and H2O2 were purchased from Sigma (St. Louis, Mo., USA). HT22 cells were cultured and MTT assays were performed as described previously. Experiments presented here were repeated at least 3 times with 4 samples for each determination. The data are presented as the mean ±SD (for in vitro experiments). In order to examine the neuroprotective effects of DPPD, we employed the following 4 death-inducing agents: 1) glutamate (oxidative stress, transcription-dependent), 2) TNFα (receptor-mediated apoptosis, transcription-independent), 3) H2O2 (oxidative stress, transcription-independent) and 4) XA+XO (oxidative stress, transcription-independent). In FIG. 1, squares, DPPD; circles, D1; triangles, D2. […] HT22 cells were seeded into 24-well plates at a density of 4×10^4 cells/cm^2. After a 5-hr incubation, various concentrations of the compounds were added. One hour later, 5 mM of glutamate was added to the cultures, and 20 h thereafter, the cells were subjected to the MTT assay. The values, which represent the percentage of the control MTT activity, are means ±S.D.s (n=4).
In order to determine whether the inhibition was substantially specific to cell death by oxidative glutamate toxicity, the effects of these compounds on the cell death induced by various stimuli were examined. Adverting to FIGS. 2A, 2B, 2C and 2D, 2HT22 cells were seeded into 24-well plates at a density of 4×10^4 cells/cm^2. After a 5-hr incubation, various concentrations of DPPD were added. One hour later, the cells were treated for 20 h with glutamate (A), TNFα in the presence of 0.1 μg/ml AcD (B), H2O2 (C) and XO in the presence of 0.1 mg/ml of XA (D) and then were subjected to the MTT assay. The values, which represent the percentage of the control MTT activity, are means ±S.D.s (n=4).
For orientation: Tetrazolium assays rely on reduction of a dye to a coloured formazan, in cell work by metabolically active cells.

The subject of another test is PC12 cells. The note with it: DPPD at μM concentrations; associated with decrease in intracellular ROS levels [13]; cited from earlier work.
The subject of test [2] is HT22 cells. The test can be described thus: XA+XO-induced cell death of HT22 cells, MTT assay. In kind it is cell-based, mouse. The conditions noted are these: 15 or 30 mU/ml XO with 0.1 mg/ml XA, 20 h, MTT (FIG. 2D). The protocol: as §1, with “(n=4). […]” for “(n=4).”
For test [3], the system named is HT22 cells. The test can be described thus: TNFα-induced cell death of HT22 cells (with AcD), MTT assay. Type of test: cell-based, mouse. The note with it: 0.1 or 1.0 ng/ml TNFα with 0.1 μg/ml AcD, 20 h, MTT (FIG. 2B). The method, then: as §1, with “(n=4). […]” for “(n=4).”
In test [4] the test system is HT22 cells. Nature of the test: H2O2-induced cell death of HT22 cells, MTT assay. Type of test: cell-based, mouse. The conditions noted are these: 30 or 50 μM H2O2, 20 h, MTT (FIG. 2C). The protocol:
as §1, with “(n=4). […]” for “(n=4).”

Where [5] appears, read: HT-22, HT22 cells, 5 mM glutamate, 20 h, MTT assay.

Consider `CC(C)Nc1ccc(Nc2ccccc2)cc1` [D1], for which the IC50 in the test on HT22 cells [1] (HT-22, 20 h) was 5.4 nM.

`c1ccc(Nc2ccc(Nc3ccccc3)cc2)cc1` [DPPD, N,N′-Diphenyl-p-phenylenediamine]: the “protection of PC12 cells against lipid peroxide” value with PC12 cells was “protected”. In addition, in the test on HT22 cells [1] (DPPD at 1-10 nM, 5 or 10 mM glutamate, 20 h, MTT (FIG. 2A)), the “protection against death induced by glutamate” value is reported as “almost completely blocked”. Moreover, in the test with HT22 cells [1] (HT-22, 20 h), the IC50 is 7.7 nM. The “protection against XA+XO-induced cell death” value in the test with HT22 cells [2] is on record as “did not substantially protect”. In addition, in the test on HT22 cells [3], the “protection against TNFα-induced neuronal death” value is reported as “substantially ineffective”. In the test with HT22 cells [4], the “protection against H2O2-induced cell death” value is listed as “did not substantially protect”.

For `Nc1ccc(N)cc1` [D3], the IC50 in the test on HT22 cells [1] (HT-22, 20 h) came to 879 nM.

Take `Nc1ccccc1` [D4]: the IC50 in the test on HT22 cells [1] (setting [5]) was 94000 nM.

Consider `Nc1ccc(Nc2ccccc2)cc1` [D2], for which the IC50 in the test on HT22 cells [1] (setting [5]) came to 26 nM.
